The values below come from US4803208A, “Opiate agonists and antagonists” (Sloan-Kettering Institute For Cancer Research, priority 1985, dated 1989).

Each structure is given as a SMILES string. Several values for one entry are separate records, joined by “and”; a condition that tells them apart may be missing. Equal entries are not always repeated. Entries after “also recorded” stand apart in the source; their conditions may differ.

In data set [1] the test system is opiate receptors. The experiment in a line: Irreversible opiate receptor binding/blocking (general statements). As to the method:
(§1) In brief, brain membranes were prepared and triplicate samples incubated with [^3 H] labelled ligands and designated drugs for 30 minutes at 25° C., followed by filtration over Whatman GF/B filters. […] Specific binding is defined as the difference in binding in the presence and absence of levallorphan (1 uM). […] Each tissue wash included incubation for 10 min. at 37° C., centrifugation and resuspension. Irreversibility experiments included four washes before binding assays were performed, unless otherwise stated.

Data set [2] concerns opiate receptors. Type of data set: binding, rat. The note with it: for irreversible inhibition of [^3 H]D-ala^2 -D-leu^5 -enkephalin binding (in words): 2 μM; for Change in Binding (Percent), [^3 H]D-ala^2 -D-leu^5 -enkephalin: compound 2 μM, 30 min 25° C., four washes, ligand 1 nM, mean ± s.e.m. of three experiments. As to the method: as §1
(§2) To determine which compounds did irreversibly bind to the receptor, membranes were incubated with the various drugs (2 μM) and then the free and reversibly bound drug washed away (Table 2).
(§3) Rat brain membranes were prepared and incubated with the above drugs (2 μM) for 30 min at 25° C. and the tissue was then washed four times as described in the text to remove reversibly bound material. The results represent the means ±s.e.m. of three separate experiments utilizing [^3 H]D-ala^2 -D-leu^5 -enkephal in (1 nM) and [^3 H]dihydromorphine (0.8 nM). […] After 15 min the solution was added to tissue.

Data set [3] relates to prolactin release. The experiment in a line: Prolactin release in vivo.
Data set [4] deals with high affinity, or mu1, binding sites. As to conditions: Pasternak et al.; Zhang and Pasternak; cited from earlier work.
Data set [5] deals with growth hormone release. The experiment in a line: Growth hormone release in vivo. As to conditions: for effect on growth hormone release (in words): in vivo.
Data set [6] deals with rats. It counts as in vivo, rat. As to conditions: 50 mg/kg intravenously; for Amounts eaten, individual animals / Amounts eaten, Mean ± SEM: 1 hour free access to food, 24 hours after drug; for Amounts eaten, Mean ± SEM: saline 4.78 ± 0.42, significant at the p 0.05 level (ANOVA). As to the method:
They were then food deprived for 24 hours but allowed free access to water. Five rats received saline, four received naloxone and three naloxazone. […] The animals were then given free access to food for 1 hour and their weight gain noted. Thus, eating was measured 24 hours after the administration of the drugs and after 24 hours of food deprivation.

A short description of data set [7]: Reaction of hydrazones to azines in solution. As to conditions: acidic aqueous solutions; absolute ethanol or water/acetic acid (1%), 15 min.
Data set [8] deals with rats. The note with it: cited from earlier work.
For data set [9], the system named is prolactin release. The note with it: cited from earlier work.
Data set [10] relates to growth hormone release. The note with it: cited from earlier work.
For data set [11] the following is noted: currently available agents; cited from earlier work.
Data set [12] addresses T1, opiate receptors (Rattus norvegicus, UniProt P33535).
T1 construct: Rat brain homogenates were prepared as described; from tissue; host or cells: rat brain homogenate / membranes
The experiment in a line: biochemical. Type of data set: binding. The protocol:
as §1
IC50 values were determined by least square fits of a log-probit curve. The results are the means ±s.e.m. of three IC50 values determined in separate experiments.

Data set [13] has as its target T1, opiate receptors. The data set is described as follows: biochemical. It counts as binding. The note with it: for inhibition at 2 µM: 0.5 h, compound 2 μM, 30 min 25° C., four washes, ligand 0.8 nM, mean ± s.e.m. of three experiments, read-out: Change in Binding (Percent), [^3 H]dihydromorphine. The protocol:
Results are from a single experiment which has been replicated three times.
as §1, §2, §3
After incubating membranes with the specified drug, the membranes were extensively washed and a binding assay with [^3 H]dihydromorphine performed.

For data set [14], the system named is opiate receptors. The data set is described as follows: Irreversible inhibition of ^3 H-DADL binding, 100 nM, two washes. Also noted: species or system rat. As to the method: (§4) Each wash consisted of centrifugation, incubation at 37° for 10 min and centrifugation again. […] Bindig was then performed with either ^3 H-D-ala^2 -D-leu^5 -enkephalin (DADL) or ^3 H-dihydromorphine (DHM) both at 1 nM. Specific binding was determined as that displaceable by levallorphan at 1000 nM. All values represent the means of triplicate samples ±S.E.M.

A further data set is described as follows: Duration of action. Type of data set: in vivo. The note with it: compared to conventional / currently available opiates.
For data set [15], the target named is T1, opiate receptors. The experiment in a line: Irreversible inhibition of ^3 H-DHM binding, 100 nM, two washes. The protocol: as §4
The test system of a further data set is mice. The experiment in a line: In vivo actions of naltrexone-oxymorphonazine (tailflick latencies). The note with it: for Tailflick Latencies, After 20 min / Tailflick Latencies, After 40 min: 10 mg/kg s.c.; for Tailflick Latencies, Prior: baseline prior to 10 mg/kg s.c. Also noted: species or system mouse. The protocol: Groups of mice were injected subcutaneously with the stated drug and latencies in the tailflick test determined and compared to those obtained prior to testing. […] This compares with an analgesic rate of 100% of animals receiving oxymorphone HCl in other control experiments.

T1 sequence (P33535 whole entry): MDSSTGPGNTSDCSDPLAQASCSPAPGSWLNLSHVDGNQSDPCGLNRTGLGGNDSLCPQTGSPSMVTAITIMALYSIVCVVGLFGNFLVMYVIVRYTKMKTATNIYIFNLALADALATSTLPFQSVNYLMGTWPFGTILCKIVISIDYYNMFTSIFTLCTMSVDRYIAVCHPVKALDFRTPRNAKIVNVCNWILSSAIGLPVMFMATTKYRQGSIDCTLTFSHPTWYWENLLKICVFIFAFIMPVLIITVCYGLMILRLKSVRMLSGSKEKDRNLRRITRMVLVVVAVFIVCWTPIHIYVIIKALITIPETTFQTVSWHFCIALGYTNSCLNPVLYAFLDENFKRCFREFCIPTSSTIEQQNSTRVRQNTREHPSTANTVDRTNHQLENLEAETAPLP

As for `C=CCN1CCC23c4c5ccc(O)c4OC2C(=NN)CCC3(O)C1C5` (centres unmarked) [Naloxazone, naloxazone], in the data set with opiate receptors [1] (high doses), the “dose for irreversible blockade of opiate receptor binding (naloxazone)” value stood at 2 µM. In the data set on opiate receptors [2], the “irreversible inhibition of [^3 H]D-ala^2 -D-leu^5 -enkephalin binding (in words)” value is “neither naloxazone nor oxymorphazone irreversibly inhibited the binding” and the “Change in Binding (Percent), [^3 H]D-ala^2 -D-leu^5 -enkephalin” value (shortened to “Change in Binding (Percent)”) is listed as “+15 ± 5%”. The “effect on basal levels of prolactin, naloxazone (in words)” value in the data set with prolactin release [3] (basal levels) is on record as “significant reduction in the basal levels of the drugs”. Further, in the data set on prolactin release [3] (in vivo), the “depression of morphine-induced release of prolactin” value is listed as “over 80%” and the “effect on prolactin release (in words)” value is on record as “selectively lowering prolactin release”. Further, in data set [4], the “blocking opiate analgesia / effect on opiate-induced lethality (in words)” value is “blocking opiate analgesia with little effect on other classes of binding sites or opiate-induced lethality”. In addition, in the data set with growth hormone release [5] (basal levels), the “effect on basal levels of growth hormone, naloxazone (in words)” value is “significant reduction in the basal levels of the drugs”. The “effect on growth hormone release (in words)” value with growth hormone release [5] was “actually increased; also recorded: without effecting growth hormone release elicited by morphine”. Besides, in the data set with rats [6], the “effect on feeding (in words)” value is listed as “significant effect as an appetite suppressant”; the “Amounts eaten, individual animals” value was 3.3 grams and 2.4 grams and 3.5 grams; the “Amounts eaten, Mean ± SEM” value is reported as 3.07 ± 0.34 grams. Also, the “stability in solution: reaction to azine (in words)” value in data set [7] was “no azine formation could be detected”.

Take `C=CCN1CC[C@]23c4c5ccc(O)c4O[C@H]2C(=O)CC[C@@]3(O)[C@H]1C5` [Naloxone, naloxone]: the “suppression of eating behavior (known)” value in the data set with rats [8] is recorded as “effectively suppress eating behavior in rats”. In addition, the “effect on basal levels of prolactin, naloxone (in words)” value with prolactin release [9] was “lowering of the basal levels of prolactin and growth hormone”. Besides, the “effect on prolactin release (in words)” value with prolactin release [3] (in vivo) is listed as “inhibits morphine's release of both hormones”. Further, the “effect on growth hormone release (in words)” value in the data set with growth hormone release [5] is listed as “inhibits morphine's release of both hormones”. Also, in the data set on rats [6], the “effect on feeding (in words)” value is listed as “inability of naloxone to effect feeding behavior”; the “Amounts eaten, individual animals” value is 4.1 grams and 5.3 grams and 4.4 grams and 3.7 grams; the “Amounts eaten, Mean ± SEM” value is 4.38 ± 0.34 grams. Also, in the data set on growth hormone release [10], the “effect on basal levels of growth hormone, naloxone (in words)” value is “lowering of the basal levels of prolactin and growth hormone”. Further, in [11], the “half-life (in words)” value is “short half-life”.

As a reminder, the IC50 is the point on the concentration scale where inhibition reaches its midpoint. With `NN=C1CCC2(O)C3Cc4ccc(O)c5c4C2(CCN3CC2CC2)C1O5` (centres unmarked) [Naltrexazone, naltrexazone], in the data set with opiate receptors [2], the “irreversible inhibition of [^3 H]D-ala^2 -D-leu^5 -enkephalin binding (in words)” value is listed as “small amount of inhibition” and the “Change in Binding (Percent)” value is reported as -17 ± 19%. The IC50 against opiate receptors [12] came out at 1.7 ± 0.2 nM. On opiate receptors [13] (2 μM, various concentrations in b75 (FIG. 2)), the “irreversible inhibition of [^3 H]dihydromorphine binding (in words)” value is given as “small amount of inhibition”. Moreover, at opiate receptors [13], the inhibition at 2 µM was determined as 31 ± 26%. Also, in data set [7], the “stability in solution: reaction to azine (in words)” value was “A trace amount of azine was present”.

Regarding `Oc1ccc2c3c1OC1C(=NN=C4CCC5(O)C6Cc7ccc(O)c8c7C5(CCN6CC5CC5)C4O8)CCC4(O)C(C2)N(CC2CC2)CCC314` (centres unmarked) [Naltrexonazine, naltrexonazine], in the data set on opiate receptors [1] (azine vs corresponding hydrazone), the “potency of irreversible block of opiate binding in vitro relative to corresponding hydrazone” value is 20-40 fold. Besides, the “selectivity for mu1 class versus naloxone and naltrexone (in words)” value in the data set on opiate receptors [1] (compared with naloxone and naltrexone) was “far more selective for the mu1 class of opiate binding sites”. In the data set with opiate receptors [2], the “Change in Binding (Percent)” value is recorded as -97 ± 3%. The same compound displayed an IC50 at opiate receptors [12] of 1.16 nM. Also, the “^3 H-DADL Binding” value with opiate receptors [14] (30 min 25° C., DADL 1 nM, control 1800 ± 53 cpm, triplicate ± S.E.M.) was found to be 653 ± 85 cpm. Further, in the data set with opiate receptors [14] (vs control, 30 min), the “^3 H-DADL Binding, change” value is reported as -65%. Besides, the inhibition at 2 µM on opiate receptors [13] was 88 ± 12%. Moreover, the “duration of action (in words)” value in the data set “Duration of action” is reported as “in the order of days”. Further, in “Duration of action” (listed as naltrexonazine), the “duration of action (in words)” value was “lasting far longer than conventional opiates”. Besides, the “^3 H-DHM Binding” value on opiate receptors [15] (100 nM, 30 min 25° C., two washes, DHM 1 nM, control 3447 ± 273 cpm, triplicate ± S.E.M.) is given as 1183 ± 128 cpm. The inhibition at 0.1 µM on opiate receptors [15] (0.5 h, read-out: ^3 H-DHM Binding, change) is 66%. Further, in the data set on mice, the “Tailflick Latencies, After 20 min” value stood at 2.50 ± 0.36 s; the “Tailflick Latencies, After 40 min” value amounted to 2.74 ± 0.49 s; the “Tailflick Latencies, Prior” value was 2.50 ± 0.34 s.

For the compound `O=C1CC[C@@]2(O)[C@H]3Cc4ccc(O)c5c4[C@@]2(CCN3CC2CC2)[C@H]1O5` [Naltrexone, naltrexone], the “removal of reversible ligand by washing (in words)” value with opiate receptors [1] (two washes with incubation at 37° for 10 min) is reported as “effectively removed”. In addition, the “suppression of eating behavior (known)” value with rats [8] is reported as “effectively suppress eating behavior in rats”. In addition, in the data set with mice, the “Tailflick Latencies, After 20 min” value came out at 2.37 ± 0.31 s; the “Tailflick Latencies, After 40 min” value was determined as 2.59 ± 0.35 s; the “Tailflick Latencies, Prior” value was determined as 2.63 ± 0.27 s.
